Test results published in patent US8945864B2, “Method of determining 1,5-anhydroglucitol, and reagent composition for determining 1,5-anhydroglucitol” (Ikeda Food Research Co., Ltd., priority 2006, dated 2015).
Like-named read-outs stand apart in the source and are kept apart here.

Tests used:
sorbose dehydrogenase [1] = target: T1, sorbose dehydrogenase (Sinorhizobium meliloti, UniProt Q92YU0); assay: Inhibitor test: additive in the reaction solution for the activity measurement; type: biochemical, Sinorhizobium sp. 97507; conditions: for activity at 1000 µM: read-out: Relative activity (%)
sorbose dehydrogenase [2] = target: T1, sorbose dehydrogenase; assay: Substrate specificity of sorbose dehydrogenase (relative reactivity, DCIP method); type: biochemical, Sinorhizobium sp. 97507
Experimental: One mL of a 0.1 M potassium phosphate buffer, pH 7.0, 1.0 mL of 1.0 M L-sorbose, 0.14 mL of 3 mM 2,6-dichlorophenol indophenol (DCIP), 0.2 mL of 3 mM 1-methoxy-5-methylphenazinium methyl sulfate, and 0.61 mL of water were added to a 3 mL quartz cell, and the quartz cell was set to a spectrophotometer equipped with a thermostat cell holder, and incubated at 37° C. for ten minutes. Then, 0.05 mL of the enzyme solution was added to the quartz cell, and changes in absorbance of DCIP at 600 nm (AABS600/min) was measured at 37° C. As the molar extinction coefficient of DCIP at pH 7.0 is known as 16.3 mM^−1, and the amount of enzyme that reduced 1 μmol of DCIP for one minute is defined as one unit. Following the definition, the concentration of enzyme activity was calculated based on the following equation. enzyme activity (units/mL)=(−ΔABS600/min×3.0×dilution rate)/(16.3×1.0×0.05)
Measurement conditions in the above “method of measuring enzyme activity” were suitably modified as necessary, and the optimal pH, pH stability, optimal temperature, temperature stability, substrate specificity, Km value, total molecular weight, subunit molecular weight, inhibitor, and product of the enzyme reaction were identified. The properties of the enzyme were evaluated in accordance with the following tests.
[…]. The results are shown as a relative value of each substrate with reference to the value of activity of L-sorbose as a standard.

[3] = additive final concentration 1.0 mM, control without additive = 100%
[4] = substrate 333 mM (lactose 167 mM)
[5] = substrate final concentration 333 mM, relative to activity of L-sorbose as standard (100)
[6] = substrate final concentration 333 mM, […]

T1 sequence (Q92YU0 entry or part of it): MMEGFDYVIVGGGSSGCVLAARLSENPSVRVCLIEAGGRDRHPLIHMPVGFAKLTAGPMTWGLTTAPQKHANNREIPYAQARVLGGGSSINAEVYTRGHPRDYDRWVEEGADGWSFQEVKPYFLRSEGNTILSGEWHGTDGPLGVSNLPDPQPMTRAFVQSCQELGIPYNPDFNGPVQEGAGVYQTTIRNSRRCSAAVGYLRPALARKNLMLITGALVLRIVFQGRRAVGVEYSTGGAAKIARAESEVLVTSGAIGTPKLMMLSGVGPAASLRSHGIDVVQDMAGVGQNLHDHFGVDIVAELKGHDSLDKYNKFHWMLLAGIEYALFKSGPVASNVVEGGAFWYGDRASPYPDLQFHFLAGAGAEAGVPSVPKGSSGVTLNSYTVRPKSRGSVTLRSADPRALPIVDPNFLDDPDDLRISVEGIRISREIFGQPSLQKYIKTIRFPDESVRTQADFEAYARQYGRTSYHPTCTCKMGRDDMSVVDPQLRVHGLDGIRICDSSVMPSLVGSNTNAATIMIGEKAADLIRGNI

2-(p-)nitrobenzoic acid
Relative activity (%) (sorbose dehydrogenase [1]; [3]): 75%

O=C(O)CC(O)C(=O)O (racemic) [DL-malic acid]
Relative activity (%) (sorbose dehydrogenase [1]; [3]): 85%

O=C(O)C(O)C(O)C(=O)O (racemic) [DL-tartaric acid]
Relative activity (%) (sorbose dehydrogenase [1]; [3]): 86%

OC[C@H]1OC[C@H](O)[C@@H](O)[C@@H]1O [1,5-anhydroglucitol]
Effect of the sorbose dehydrogenase on the substrate (in words) (sorbose dehydrogenase [2]; [4]): strong effect | Relative activity (%) (sorbose dehydrogenase [2]; [5]): 79.1%

c1cnc2c(c1)ccc1cccnc12 [1,10-phenanthroline]
activity at 1000 µM (sorbose dehydrogenase [1]; [3]): 77%

CCCCO [1-butanol]
Effect of the sorbose dehydrogenase on the substrate (in words) (sorbose dehydrogenase [2]): weak effect | Relative activity (%) (sorbose dehydrogenase [2]): 1.29%

CCCO [1-propanol]
Effect of the sorbose dehydrogenase on the substrate (in words) (sorbose dehydrogenase [2]; [4]): little effect | Relative activity (%) (sorbose dehydrogenase [2]; [5]): 0.75%

c1ccc(-c2ccccn2)nc1 [2,2′-bipyridine]
activity at 1000 µM (sorbose dehydrogenase [1]; [3]): 88%

CC(O)C(C)O (stereo not shown) [2,3-butanediol]
Effect of the sorbose dehydrogenase on the substrate (in words) (sorbose dehydrogenase [2]): little effect | Relative activity (%) (sorbose dehydrogenase [2]): 0.26%

CCC(C)O (stereo not shown) [2-butanol]
Effect of the sorbose dehydrogenase on the substrate (in words) (sorbose dehydrogenase [2]): little effect

CC(C)CO [2-methyl-1-propanol]
Effect of the sorbose dehydrogenase on the substrate (in words) (sorbose dehydrogenase [2]; [4]): weak effect | Relative activity (%) (sorbose dehydrogenase [2]; [5]): 2.06%

CCCC(C)O (stereo not shown) [2-pentanol]
Effect of the sorbose dehydrogenase on the substrate (in words) (sorbose dehydrogenase [2]; [4]): little effect

CC(C)O [2-propanol]
Effect of the sorbose dehydrogenase on the substrate (in words) (sorbose dehydrogenase [2]; [4]): little effect | Relative activity (%) (sorbose dehydrogenase [2]; [5]): 0.39%

Oc1cccc2cccnc12 [8-quinolinol]
Relative activity (%) (sorbose dehydrogenase [1]): 106%

[Cl][Al]([Cl])[Cl] [AlCl3]
Relative activity (%) (sorbose dehydrogenase [1]; [3]): 109%

C=CCO [Allyl alcohol]
Effect of the sorbose dehydrogenase on the substrate (in words) (sorbose dehydrogenase [2]; [4]): weak effect | Relative activity (%) (sorbose dehydrogenase [2]; [6]): 3.80%

NN=C(N)N.O=S(=O)(O)O [Aminoguanidine sulfate]
Relative activity (%) (sorbose dehydrogenase [1]): 91%

[Ba+2].[Cl-].[Cl-] [BaCl2]
Relative activity (%) (sorbose dehydrogenase [1]; [3]): 80%

O=C(O)c1ccccc1 [Benzoic acid]
activity at 1000 µM (sorbose dehydrogenase [1]): 101%

[Ca+2].[Cl-].[Cl-] [CaCl2]
Relative activity (%) (sorbose dehydrogenase [1]): 92%

[Cl][Cd][Cl] [CdCl2]
Relative activity (%) (sorbose dehydrogenase [1]): 91%

O=C(O)CC(O)(CC(=O)O)C(=O)O [Citric acid]
activity at 1000 µM (sorbose dehydrogenase [1]): 86%

[Cl][Cu][Cl] [CuCl2]
Relative activity (%) (sorbose dehydrogenase [1]; [3]): 0% | Inhibition of the sorbose dehydrogenase (in words) (sorbose dehydrogenase [1]; heavy metal ions, 1 mM): remarkably inhibited

O=C[C@H](O)[C@@H](O)[C@@H](O)[C@H](O)CO [D-(+)-galactose]
Effect of the sorbose dehydrogenase on the substrate (in words) (sorbose dehydrogenase [2]; [4]): weak effect | Relative activity (%) (sorbose dehydrogenase [2]; [6]): 1.69%

O=C[C@H](O)[C@@H](O)[C@H](O)[C@H](O)CO [D-(+)-glucose]
Effect of the sorbose dehydrogenase on the substrate (in words) (sorbose dehydrogenase [2]; [4]): weak effect | Relative activity (%) (sorbose dehydrogenase [2]; [6]): 1.22%

O=C[C@@H](O)[C@@H](O)[C@H](O)[C@H](O)CO [D-(+)-mannose]
Effect of the sorbose dehydrogenase on the substrate (in words) (sorbose dehydrogenase [2]; [4]): little effect | Relative activity (%) (sorbose dehydrogenase [2]; [6]): 0.15%

O=C(CO)[C@@H](O)[C@H](O)[C@H](O)CO [D-(−)-fructose]
Effect of the sorbose dehydrogenase on the substrate (in words) (sorbose dehydrogenase [2]; [4]): little effect | Relative activity (%) (sorbose dehydrogenase [2]; [6]): 0%

O=C(CO)[C@H](O)[C@@H](O)[C@H](O)CO [D-(−)-sorbose]
Effect of the sorbose dehydrogenase on the substrate (in words) (sorbose dehydrogenase [2]; [4]): weak effect | Relative activity (%) (sorbose dehydrogenase [2]; [6]): 2.96%

OC[C@H]1O[C@@H](O[C@H]2[C@H](O)[C@@H](O)[C@H](O)O[C@@H]2CO)[C@H](O)[C@@H](O)[C@@H]1O [D-cellobiose]
Effect of the sorbose dehydrogenase on the substrate (in words) (sorbose dehydrogenase [2]; [4]): little effect

N[C@@H]1CONC1=O [D-cycloserine]
Relative activity (%) (sorbose dehydrogenase [1]; [3]): 90%

OC[C@@H](O)[C@@H](O)[C@H](O)[C@H](O)CO [D-mannitol]
Effect of the sorbose dehydrogenase on the substrate (in words) (sorbose dehydrogenase [2]; [4]): little effect

OC[C@H]1O[C@H](OC[C@H]2O[C@H](O[C@]3(CO)O[C@H](CO)[C@@H](O)[C@@H]3O)[C@H](O)[C@@H](O)[C@@H]2O)[C@H](O)[C@@H](O)[C@H]1O [D-raffinose]
Effect of the sorbose dehydrogenase on the substrate (in words) (sorbose dehydrogenase [2]; [4]): little effect

O=C[C@H](O)[C@H](O)[C@H](O)CO [D-ribose]
Effect of the sorbose dehydrogenase on the substrate (in words) (sorbose dehydrogenase [2]; [4]): little effect

OC[C@@H](O)[C@@H](O)[C@H](O)[C@@H](O)CO [D-sorbitol]
Effect of the sorbose dehydrogenase on the substrate (in words) (sorbose dehydrogenase [2]; [4]): little effect

OC[C@H]1O[C@H](O[C@H]2O[C@H](CO)[C@@H](O)[C@H](O)[C@H]2O)[C@H](O)[C@@H](O)[C@@H]1O [D-trehalose]
Effect of the sorbose dehydrogenase on the substrate (in words) (sorbose dehydrogenase [2]; [4]): little effect

O=C[C@H](O)[C@@H](O)[C@H](O)CO [D-xylose]
Effect of the sorbose dehydrogenase on the substrate (in words) (sorbose dehydrogenase [2]; [4]): little effect

O=C([O-])CN(CCN(CC(=O)O)CC(=O)O)CC(=O)[O-].[Na+].[Na+] [EDTA-2Na]
Relative activity (%) (sorbose dehydrogenase [1]): 102%

CCO [Ethanol]
Effect of the sorbose dehydrogenase on the substrate (in words) (sorbose dehydrogenase [2]): little effect | Relative activity (%) (sorbose dehydrogenase [2]): 0%

[Cl][Fe]([Cl])[Cl] [FeCl3]
Relative activity (%) (sorbose dehydrogenase [1]; [3]): 89%

O=C(O)/C=C/C(=O)O [Fumaric acid]
activity at 1000 µM (sorbose dehydrogenase [1]): 99%

OCC(O)CO [Glycerol]
Effect of the sorbose dehydrogenase on the substrate (in words) (sorbose dehydrogenase [2]; [4]): little effect | Relative activity (%) (sorbose dehydrogenase [2]; [6]): 0%

OO [H2O2]
Relative activity (%) (sorbose dehydrogenase [1]): 98%

[Cl][Hg][Cl] [HgCl2]
Relative activity (%) (sorbose dehydrogenase [1]; [3]): 0% | Inhibition of the sorbose dehydrogenase (in words) (sorbose dehydrogenase [1]; heavy metal ions, 1 mM): remarkably inhibited

O=C(O)CI [Iodoacetic acid]
activity at 1000 µM (sorbose dehydrogenase [1]): 83%

O=C[C@H](O)[C@@H](O)[C@@H](O)CO [L-arabinose]
Effect of the sorbose dehydrogenase on the substrate (in words) (sorbose dehydrogenase [2]; [4]): little effect

C[C@H](O)[C@H](O)[C@@H](O)[C@@H](O)C=O [L-rhamnose]
Effect of the sorbose dehydrogenase on the substrate (in words) (sorbose dehydrogenase [2]; [4]): little effect

OC[C@H]1O[C@@H](O[C@H]2[C@H](O)[C@@H](O)C(O)O[C@@H]2CO)[C@H](O)[C@@H](O)[C@H]1O (stereo partly shown) [Lactose]
Effect of the sorbose dehydrogenase on the substrate (in words) (sorbose dehydrogenase [2]; [4]): little effect | Relative activity (%) (sorbose dehydrogenase [2]; substrate final concentration 167 mM (lactose), […]): 0.71%

[Cl-].[Li+] [LiCl]
Relative activity (%) (sorbose dehydrogenase [1]; [3]): 98%

O=C(O)/C=C\C(=O)O [Maleic acid]
activity at 1000 µM (sorbose dehydrogenase [1]): 82%

OC[C@H]1O[C@H](O[C@H]2[C@H](O)[C@@H](O)[C@H](O)O[C@@H]2CO)[C@H](O)[C@@H](O)[C@@H]1O [Maltose]
Effect of the sorbose dehydrogenase on the substrate (in words) (sorbose dehydrogenase [2]; [4]): little effect | Relative activity (%) (sorbose dehydrogenase [2]; [6]): 0%

[Cl-].[Cl-].[Mg+2] [MgCl2]
Relative activity (%) (sorbose dehydrogenase [1]): 93%

[Cl][Mn][Cl] [MnCl2]
Inhibition of the sorbose dehydrogenase (in words) (sorbose dehydrogenase [1]): remarkably inhibited | Relative activity (%) (sorbose dehydrogenase [1]): 11%

CCN1C(=O)C=CC1=O [N-ethylmaleimide]
activity at 1000 µM (sorbose dehydrogenase [1]; [3]): 88%

[Cl-].[Na+] [NaCl]
Relative activity (%) (sorbose dehydrogenase [1]): 85%

[N-]=[N+]=[N-].[Na+] [NaN3]
Relative activity (%) (sorbose dehydrogenase [1]): 115%

[Cl][Ni][Cl] [NiCl2]
Relative activity (%) (sorbose dehydrogenase [1]): 80%

[Cl][Pb][Cl] [PbCl2]
Relative activity (%) (sorbose dehydrogenase [1]): 83%

[Cl][Sn][Cl] [SnCl2]
Relative activity (%) (sorbose dehydrogenase [1]; additive final concentration 0.5 mM, control without additive = 100%): 86%

O=S(=O)(O)c1cc(O)c(O)c(S(=O)(=O)O)c1 [Tiron]
activity at 1000 µM (sorbose dehydrogenase [1]; [3]): 89%

NC(N)=O [Urea]
Relative activity (%) (sorbose dehydrogenase [1]; [3]): 92%

OC[C@@H](O)[C@H](O)[C@@H](O)CO [Xylitol]
Effect of the sorbose dehydrogenase on the substrate (in words) (sorbose dehydrogenase [2]; [4]): little effect | Relative activity (%) (sorbose dehydrogenase [2]; [5]): 0.89%

[Cl-].[Cl-].[Zn+2] [ZnCl2]
Relative activity (%) (sorbose dehydrogenase [1]; [3]): 98%

O[C@H]1[C@H](O)[C@@H](O)[C@H](O)[C@@H](O)[C@H]1O [inositol]
Effect of the sorbose dehydrogenase on the substrate (in words) (sorbose dehydrogenase [2]; [4]): little effect

OC[C@@H](O)[C@@H](O)CO [meso-erythritol]
Effect of the sorbose dehydrogenase on the substrate (in words) (sorbose dehydrogenase [2]; [4]): little effect

O=C(O)C(O)C(O)C(=O)O (stereo not drawn) [meso-tartaric acid]
Relative activity (%) (sorbose dehydrogenase [1]; [3]): 94%

CO [methanol]
Effect of the sorbose dehydrogenase on the substrate (in words) (sorbose dehydrogenase [2]): little effect

CC(O)CO (stereo not shown) [propylene glycol]
Effect of the sorbose dehydrogenase on the substrate (in words) (sorbose dehydrogenase [2]; [4]): little effect

OC[C@H]1O[C@@](CO)(O[C@H]2O[C@H](CO)[C@@H](O)[C@H](O)[C@H]2O)[C@@H](O)[C@@H]1O [sucrose]
Effect of the sorbose dehydrogenase on the substrate (in words) (sorbose dehydrogenase [2]; [4]): little effect

Acriflavin
Relative activity (%) (sorbose dehydrogenase [1]; [3]): 66%

CoCl2
Relative activity (%) (sorbose dehydrogenase [1]): 86%

Triton X-100
Relative activity (%) (sorbose dehydrogenase [1]; [3]): 39%
